Test system: Mino cells
Experiment: Pull-down proteomics in Mino cells
Type: cell-based, human
Method: The cells were lysed and “clicked” with biotin-azide, and the samples were incubated at room temperature for 1 h. The samples were then precipitated with methanol–chloroform (1 mL of methanol, 250 μL of chloroform, 750 μL of water), washed with 1 mL of methanol, and air-dried. The samples were solubilized, bound to streptavidin agarose beads in PBS for 3 h at 25 °C. The beads were washed, centrifuged, resuspended in Tris 50 mM pH 8, and transferred to a clean Eppendorf tube. After this, the bound proteins were eluted by boiling with 5% SDS then reduced with DTT, alkylated with iodoacetamide, and digested with trypsin. The samples were run on LC/MS/MS. The detailed procedure is available in the Supplementary Methods Section. […]
Pull-down proteomics experiments
1b or DMSO. The cells were spun down, washed with cold PBS and frozen. Then, each sample was lysed in 200 ul of RIPA for 15 minutes on ice and centrifuged at 20000 g at 4 °C. The protein in the supernatant was quantified using BCA. For each sample, […] of 1.65 mg/ml was prepared.
At this point, 5 ul of 5 mM biotin azide and 9 ul of 100 mM CuSO4:THPTA complex were added.
The click reaction was initiated by the addition of 7.5 ul of 150 mM sodium ascorbate, and the samples are incubated at room temperature for 1 hour. The samples were then precipitated with methanol: chloroform (1 ml methanol, 250 l chloroform, 750 l water), washed with 1 ml of methanol, and air dried. The dry pellet was resuspended in 1.2% SDS in PBS (250 l), sonicated as described before, and heated to 90 °C for 5 minutes. The samples were then diluted to 1.5 ml with PBS, and 50 ul of streptavidin agarose beads, prewashed with 0.2% SDS in PBS, were added, followed by 3 hour incubation at room temperature. Following the incubation, the beads were centrifuged 2 minutes 2000 g, and washed 4 times, with the following buffers (4 ml in each wash):
2% SDS; 0.1% sodium deoxycholate, 1% Triton X-100, 0.5 M NaCl, 1 mM EDTA, 50 mM HEPES pH = 7.5; 0.25 M NaCl, 0.5% IGEPAL, 0.5% sodium deoxycholate, 1 mM EDTA, 10 mM Tris pH = 8.1; 50 mM Tris pH = 7.4, 50 mM NaCl. The beads were then resuspended in Tris 50 mM pH = 8 and transferred to a clean Eppendorf tube.
At this point, the buffer was removed to leave a volume of 100 ul, and 100 ul of Tris 50 mM pH 8 + 10% SDS was added, and the samples were heated to 96 °C for 5 minutes. The samples were then centrifuged and the denatured, eluted proteins were transferred to new tubes. Then, 7.5 ul of 0.1 M DTT was added, and samples were incubated at 65 °C for 45 minutes. After the samples had cooled, 7.5 ul of iodoacetamide (0.2 M) were added, and the samples were incubated in the dark for 40 minutes at room temperature. At this point 1/10 volume of 12% phosphoric acid was added, and the samples were diluted 6-fold with 90% methanol + 50 mM ammonium bicarbonate. The samples were then loaded on s-trap micro columns (Protify) and the columns […]
were washed 3 times with 150 ul of 90% methanol + 50 mM ammonium bicarbonate. Then, 20 ul of 0.05 g/l of trypsin in 50 mM ammonium bicarbonate were added to the columns, and the samples were incubated at 47 °C for 90 minutes. Then 40 ul of 50 mM ammonium bicarbonate was added, followed by centrifugation and addition of 1 ul of 0.5 g/l trypsin to the eluate, which was incubated at 37C overnight. The column itself was then eluted using 40 ul of 0.2% formic acid and 40 ul 0.2% formic acid in 50% acetonitrile into a separate tube, which was kept at 4 °C. The two eluates were then combined and evaporated before running on LC/MS/MS.
Running samples on LC/MS/MS:
ULC/MS grade solvents were used for all chromatographic steps. Each sample was loaded using split-less nano-Ultra Performance Liquid Chromatography (10 kpsi nanoAcquity; Waters, Milford, MA, USA). The mobile phase was: A) H2O + 0.1% formic acid and B) acetonitrile + 0.1% formic acid. Desalting of the samples was performed online using a reversed-phase Symmetry C18 […]

C#CCCNC(=O)C(=C)CN1CCC[C@@H](n2nc(-c3ccc(Oc4ccccc4)cc3)c3c(N)ncnc32)C1 [1b]
Log2(fold enrichment) (ACACA_HUMAN group, 1b relative to pretreatment by ibrutinib): 0.4315 | Log2(fold enrichment) (ACACA_HUMAN group, 1b relative to treatment with DMSO): -0.2749 | Log2(fold enrichment) (ACTG_HUMAN group, 1b relative to pretreatment by ibrutinib): 0.2725 | Log2(fold enrichment) (ACTG_HUMAN group, 1b relative to treatment with DMSO): 0.2915 | Log2(fold enrichment) (ALDOA_HUMAN, 1b relative to pretreatment by ibrutinib): 0.4926 | Log2(fold enrichment) (ALDOA_HUMAN, 1b relative to treatment with DMSO): 0.06327 | Log2(fold enrichment) (ANXA2_HUMAN group, 1b relative to pretreatment by ibrutinib): -0.9011 | Log2(fold enrichment) (ANXA2_HUMAN group, 1b relative to treatment with DMSO): 0.8548 | Log2(fold enrichment) (B3GT4_HUMAN, 1b relative to pretreatment by ibrutinib): 0.1405 | Log2(fold enrichment) (B3GT4_HUMAN, 1b relative to treatment with DMSO): 2.2518 | Log2(fold enrichment) (CAD15_HUMAN, 1b relative to pretreatment by ibrutinib): -2.753 | Log2(fold enrichment) (CAD15_HUMAN, 1b relative to treatment with DMSO): -0.7397 | Log2(fold enrichment) (CRERF_HUMAN, 1b relative to pretreatment by ibrutinib): -0.1083 | Log2(fold enrichment) (CRERF_HUMAN, 1b relative to treatment with DMSO): -0.06839 | Log2(fold enrichment) (CX062_HUMAN, 1b relative to pretreatment by ibrutinib): 3.426 | Log2(fold enrichment) (CX062_HUMAN, 1b relative to treatment with DMSO): 2.336 | Log2(fold enrichment) (CYB5B_HUMAN, 1b relative to pretreatment by ibrutinib): 4.3203 | Log2(fold enrichment) (CYB5B_HUMAN, 1b relative to treatment with DMSO): 3.916 | Log2(fold enrichment) (CYFP1_HUMAN, 1b relative to pretreatment by ibrutinib): 5.178 | Log2(fold enrichment) (CYFP1_HUMAN, 1b relative to treatment with DMSO): 4.841 | Log2(fold enrichment) (DCD_HUMAN, 1b relative to pretreatment by ibrutinib): 0.833 | Log2(fold enrichment) (DCD_HUMAN, 1b relative to treatment with DMSO): 3.261 | Log2(fold enrichment) (DESP_HUMAN, 1b relative to pretreatment by ibrutinib): -0.03598 | Log2(fold enrichment) (DESP_HUMAN, 1b relative to treatment with DMSO): 1.065 | Log2(fold enrichment) (DSC1_HUMAN, 1b relative to pretreatment by ibrutinib): -0.2037 | Log2(fold enrichment) (DSC1_HUMAN, 1b relative to treatment with DMSO): 0.5233 | Log2(fold enrichment) (DSG1_HUMAN, 1b relative to pretreatment by ibrutinib): -0.7862 | Log2(fold enrichment) (DSG1_HUMAN, 1b relative to treatment with DMSO): 1.658 | Log2(fold enrichment) (EF1A3_HUMAN group, 1b relative to pretreatment by ibrutinib): 0.1605 | Log2(fold enrichment) (EF1A3_HUMAN group, 1b relative to treatment with DMSO): 0.3209 | Log2(fold enrichment) (ELAF_HUMAN, 1b relative to pretreatment by ibrutinib): -0.07576 | Log2(fold enrichment) (ELAF_HUMAN, 1b relative to treatment with DMSO): 3.288 | Log2(fold enrichment) (ENOA_HUMAN, 1b relative to pretreatment by ibrutinib): 0.1924 | Log2(fold enrichment) (ENOA_HUMAN, 1b relative to treatment with DMSO): 0.2037 | Log2(fold enrichment) (EP400_HUMAN, 1b relative to pretreatment by ibrutinib): 1.834 | Log2(fold enrichment) (EP400_HUMAN, 1b relative to treatment with DMSO): -0.06967 | Log2(fold enrichment) (FABP5_HUMAN, 1b relative to pretreatment by ibrutinib): -0.02939 | Log2(fold enrichment) (FABP5_HUMAN, 1b relative to treatment with DMSO): 1.253 | Log2(fold enrichment) (G3P_HUMAN, 1b relative to pretreatment by ibrutinib): 0.2104 | Log2(fold enrichment) (G3P_HUMAN, 1b relative to treatment with DMSO): 0.2112 | Log2(fold enrichment) (GRAH_HUMAN, 1b relative to pretreatment by ibrutinib): -0.3838 | Log2(fold enrichment) (GRAH_HUMAN, 1b relative to treatment with DMSO): 1.151 | Log2(fold enrichment) (GSTP1_HUMAN, 1b relative to pretreatment by ibrutinib): 0.8097 | Log2(fold enrichment) (GSTP1_HUMAN, 1b relative to treatment with DMSO): 1.004 | Log2(fold enrichment) (HS90B_HUMAN group, 1b relative to pretreatment by ibrutinib): 0.4589 | Log2(fold enrichment) (HS90B_HUMAN group, 1b relative to treatment with DMSO): 0.7364 | Log2(fold enrichment) (HSP7C_HUMAN, 1b relative to pretreatment by ibrutinib): 0.6921 | Log2(fold enrichment) (HSP7C_HUMAN, 1b relative to treatment with DMSO): 0.6391 | Log2(fold enrichment) (K2C6B_HUMAN, 1b relative to pretreatment by ibrutinib): -0.8867 | Log2(fold enrichment) (K2C6B_HUMAN, 1b relative to treatment with DMSO): 0.6152 | Log2(fold enrichment) (KPYM_HUMAN, 1b relative to pretreatment by ibrutinib): 0.1731 | Log2(fold enrichment) (KPYM_HUMAN, 1b relative to treatment with DMSO): 1.135 | Log2(fold enrichment) (LDHA_HUMAN, 1b relative to pretreatment by ibrutinib): 0.2369 | Log2(fold enrichment) (LDHA_HUMAN, 1b relative to treatment with DMSO): -0.2458 | Log2(fold enrichment) (LEG9C_HUMAN group, 1b relative to pretreatment by ibrutinib): 1.455 | Log2(fold enrichment) (LEG9C_HUMAN group, 1b relative to treatment with DMSO): -0.9819 | Log2(fold enrichment) (MCCA_HUMAN, 1b relative to pretreatment by ibrutinib): 0.4599 | Log2(fold enrichment) (MCCA_HUMAN, 1b relative to treatment with DMSO): -0.3745 | Log2(fold enrichment) (MMRN2_HUMAN, 1b relative to pretreatment by ibrutinib): -0.0371 | Log2(fold enrichment) (MMRN2_HUMAN, 1b relative to treatment with DMSO): 0.08276 | off-targets found in pull-down proteomics (Mino cells, 100 nM 1b): BLK, MCAT, and ADK | Log2(fold enrichment) (NEUM_HUMAN, 1b relative to pretreatment by ibrutinib): 2 | Log2(fold enrichment) (NEUM_HUMAN, 1b relative to treatment with DMSO): 0.3281 | Log2(fold enrichment) (NPM_HUMAN, 1b relative to pretreatment by ibrutinib): 1.109 | Log2(fold enrichment) (NPM_HUMAN, 1b relative to treatment with DMSO): 0.4515 | Log2(fold enrichment) (PIP_HUMAN, 1b relative to pretreatment by ibrutinib): 0.6558 | Log2(fold enrichment) (PIP_HUMAN, 1b relative to treatment with DMSO): -0.01924 | Log2(fold enrichment) (PLAK_HUMAN, 1b relative to pretreatment by ibrutinib): 0.152 | Log2(fold enrichment) (PLAK_HUMAN, 1b relative to treatment with DMSO): 1.616 | Log2(fold enrichment) (PRDX2_HUMAN group, 1b relative to pretreatment by ibrutinib): -0.09254 | Log2(fold enrichment) (PRDX2_HUMAN group, 1b relative to treatment with DMSO): -0.2676 | Log2(fold enrichment) (REL_HUMAN, 1b relative to pretreatment by ibrutinib): 1.348 | Log2(fold enrichment) (REL_HUMAN, 1b relative to treatment with DMSO): -0.2147 | Log2(fold enrichment) (RL13_HUMAN, 1b relative to pretreatment by ibrutinib): 0.7491 | Log2(fold enrichment) (RL13_HUMAN, 1b relative to treatment with DMSO): 0.2396 | Log2(fold enrichment) (RL15_HUMAN, 1b relative to pretreatment by ibrutinib): 0.2388 | Log2(fold enrichment) (RL15_HUMAN, 1b relative to treatment with DMSO): 0.9031 | Log2(fold enrichment) (RL18_HUMAN, 1b relative to pretreatment by ibrutinib): 0.6086 | Log2(fold enrichment) (RL18_HUMAN, 1b relative to treatment with DMSO): -0.373 | Log2(fold enrichment) (RL40_HUMAN group, 1b relative to pretreatment by ibrutinib): -1.022 | Log2(fold enrichment) (RL40_HUMAN group, 1b relative to treatment with DMSO): 0.218 | Log2(fold enrichment) (S10A8_HUMAN, 1b relative to pretreatment by ibrutinib): 0.2414 | Log2(fold enrichment) (S10A8_HUMAN, 1b relative to treatment with DMSO): 0.2312 | Log2(fold enrichment) (S10A9_HUMAN, 1b relative to pretreatment by ibrutinib): 0.07875 | Log2(fold enrichment) (S10A9_HUMAN, 1b relative to treatment with DMSO): 2.006 | Log2(fold enrichment) (SYFM_HUMAN, 1b relative to pretreatment by ibrutinib): 0.9276 | Log2(fold enrichment) (SYFM_HUMAN, 1b relative to treatment with DMSO): -1.069 | Log2(fold enrichment) (TBA1B_HUMAN group, 1b relative to pretreatment by ibrutinib): 0.8267 | Log2(fold enrichment) (TBA1B_HUMAN group, 1b relative to treatment with DMSO): 1.164 | Log2(fold enrichment) (TBB5_HUMAN group, 1b relative to pretreatment by ibrutinib): 1.023 | Log2(fold enrichment) (TBB5_HUMAN group, 1b relative to treatment with DMSO): 0.6602 | Log2(fold enrichment) (TGM3_HUMAN, 1b relative to pretreatment by ibrutinib): -0.2702 | Log2(fold enrichment) (TGM3_HUMAN, 1b relative to treatment with DMSO): 0.4648 | Log2(fold enrichment) (THIO_HUMAN, 1b relative to pretreatment by ibrutinib): 0.6478 | Log2(fold enrichment) (THIO_HUMAN, 1b relative to treatment with DMSO): 0.5583 | Log2(fold enrichment) (TPIS_HUMAN, 1b relative to pretreatment by ibrutinib): 1.866 | Log2(fold enrichment) (TPIS_HUMAN, 1b relative to treatment with DMSO): 2.762 | Log2(fold enrichment) (VDAC2_HUMAN, 1b relative to pretreatment by ibrutinib): 0.298 | Log2(fold enrichment) (VDAC2_HUMAN, 1b relative to treatment with DMSO): 2.794 | Log2(fold enrichment) (ZNT4_HUMAN, 1b relative to pretreatment by ibrutinib): 0.6391 | Log2(fold enrichment) (ZNT4_HUMAN, 1b relative to treatment with DMSO): 0.7876
